Results on one compound are retold here after patent US20150037375A1, “DOPING AGENTS AND POLYMERIC COMPOSITIONS THEREOF FOR CONTROLLED DRUG DELIVERY” (TRUSTEES OF BOSTON UNIVERSITY ET AL, priority 2011, published 2015).

Converted amounts (≈) assume the structure as drawn.

Data set [1] is described as follows: Lactone form of SN-38 released from meshes. Conditions: control, bolus of SN-38 added to pH 6.4 PBS for an hour. As to the method:
An additional release study was performed to determine if the active form of SN-38 was preserved within electrospun meshes.

Data set [2] relates to Lewis Lung Carcinoma (LLC) cells. In words: Cell viability (MTT) after 24 hour treatments with drug-loaded meshes, LLC cells.
Experimental: (§1) The meshes contained either 0.01, 0.1, or 1.0 w/w % drug (SN38 or CPT-11). The camptothecin release from these meshes was tested using a cell viability assay following 24 hour treatments with camptothecin-loaded or unloaded meshes. […] Individual camptothecin-loaded and unloaded meshes were placed in permeable filter supports (Polyester membrane insert, 3.0 μm pore size; Corning Incorporated, Corning, N.Y.) and maintained in SPM. Medium was changed periodically to ensure continued drug release. […] At designated time points, subconfluent cells were harvested and seeded on 12-well plates at 30,000 cells/well in SPM. After 24 hours, filter supports and meshes were transferred from holding wells to the wells containing tumor cells in 2 mL of fresh SPM. After 24 hours of co-incubation with tumor cells, films were returned to holding wells in fresh SPM until the subsequent time point. Five days after treatment, tumor cell viability was measured using a colorimetric MTT (3-(4,5-dimethyl-2-thiazolyl)-2,5-diphenyltetrazolium bromide) cell proliferation assay (Sigma, St. Louis, Mo.). Cell viability was calculated as the percentage of the positive control absorbance for each cell line at each time point.
Data set [3] deals with HT-29 colorectal cancer cells. In words: In vitro cytotoxicity (MTS/MTT) of drug-loaded meshes, HT-29 cells.
Experimental: as §1

Regarding `CCc1c2c(nc3ccc(O)cc13)-c1cc3c(c(=O)n1C2)COC(=O)[C@]3(O)CC` [SN-38, 7-ethyl-10-hydroxycamptothecin], the “SN-38 remaining in the active lactone form” value in data set [1] is 73%. Besides, in data set [2], the IC-50 entry was “≈ 8 ng/mL”. The same compound returned an IC50 in data set [3] of 3.4 ng/mL (≈ 8.66 nM).
